# From US20170305943A1, “COMPOUNDS FOR THE TREATMENT OF BACTERIAL INFECTIONS” (priority 2014, published 2017)
# System: Clostridium difficile (Isolate ID ATCC 9689)
# Experiment: Bacterial Assay: Determination of Antibacterial Activity (MIC, broth microdilution or agar dilution)
# Type: cell-based
# Details: Clostridioides difficile, ATCC9689, 48 h, read-out: C. difficile MIC Activity Range
# Summary of the method: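 MICs were set by CLSI broth microdilution or agar dilution for anaerobes, read visually after 48 hours at 37° C. under anaerobic gas packs. Medium was reinforced clostridial medium with 0.1% defibrinated horse blood; values are binned as A ≦1.01, B >1.0-4.0, C >4.0-16 μg/mL.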
row,SMILES,MIC [µg/mL]
1,"NC(=O)c1c(F)ccc(OCCOCCOc2ccc(C(F)(F)F)cc2)c1F [Compound 146, 2,6-difluoro-3-(2-{2-[4-(trifluoromethyl)phenoxy]ethoxy}ethoxy) benzamide]",< 1.01
2,"NC(=O)c1c(F)ccc(OCCCCNc2ccc(C(F)(F)F)cc2)c1F [Compound 147, 2,6-difluoro-3-(4-{[4-(trifluoromethyl)phenyl]amino}butoxy) benzamide]",1 to 4
3,"NC(=O)c1c(F)ccc(OCCCCNc2ccc(OC(F)(F)F)cc2)c1F [Compound 148, 2,6-difluoro-3-(4-{[4-(trifluoromethoxy)phenyl]amino}butoxy) benzamide]",< 1.01
4,NC(=O)c1c(F)ccc(OCCCCOc2ccc(OC(F)F)cc2)c1F [Compound 149],< 1.01
5,"NC(=O)c1c(F)ccc(NCCCCOc2ccc(OC(F)(F)F)cc2)c1F [Compound 150, 2,6-difluoro-3-({4-[4-(trifluoromethoxy)phenoxy]butyl}amino) benzamide]",1 to 4
6,"NC(=O)c1c(F)ccc(OCCCCOc2ccccc2)c1F [Compound 151, 2,6-difluoro-3-(4-phenoxybutoxy)benzamide]",1 to 4
7,"NC(=O)c1c(F)ccc(OCCCCSc2ccc(Cl)cc2)c1F [Compound 153, 3-{4-[(4-chlorophenyl)thio]butoxy}-2,6-difluorobenzamide]",< 1.01
8,"COc1ccc(OCCCCOc2ccc(F)c(C(N)=O)c2F)cc1 [Compound 154, 2,6-difluoro-3-[4-(4-methoxyphenoxy)butoxy]benzamide]",1 to 4
9,"NC(=O)c1c(F)ccc(OCCOCCOc2ccc(C(F)(F)F)cn2)c1F [Compound 156, 2,6-difluoro-3-[2-(2-{[5-(trifluoromethyl)pyridin-2-yl]oxy}ethoxy)ethoxy]benzamide]",1 to 4
10,"NC(=O)c1c(F)ccc(SCCCCOc2ccc(OC(F)(F)F)cc2)c1F [Compound 157, 2,6-difluoro-3-({4-[4-(trifluoromethoxy)phenoxy]butyl}thio)benzamide]",1 to 4
11,"NC(=O)c1c(F)ccc(OCCCCOc2ccc(C(F)(F)F)nn2)c1F [Compound 158, 2,6-difluoro-3-(4-{[6-(trifluoromethyl)pyridazin-3-yl]oxy}butoxy)benzamide]",4 to 16
12,"NC(=O)c1c(F)ccc(OCCCCOc2ccc(F)cc2F)c1F [Compound 162, 3-[4-(2,4-difluorophenoxy)butoxy]-2,6-difluorobenzamide]",1 to 4
13,"NC(=O)c1c(F)ccc(OCCCCOc2ccc(OC(F)(F)F)c(Br)c2)c1F [Compound 163, 3-{4-[3-bromo-4-(trifluoromethoxy)phenoxy]butoxy}-2,6-difluorobenzamide]",< 1.01
14,"NC(=O)c1c(F)ccc(OCCCCOc2ccc(OC(F)(F)F)c(Cl)c2)c1F [Compound 164, 3-{4-[3-chloro-4-(trifluoromethoxy)phenoxy]butoxy}-2,6-difluorobenzamide]",< 1.01
15,"NC(=O)c1c(F)ccc(OCCCCOc2cccc(C(F)(F)F)c2)c1F [Compound 165, 2,6-difluoro-3-{4-[3-(trifluoromethyl)phenoxy]butoxy}benzamide]",1 to 4
16,"NC(=O)c1c(F)ccc(OCCCCOc2cccc(OC(F)(F)F)c2)c1F [Compound 166, 2,6-difluoro-3-{4-[3-(trifluoromethoxy)phenoxy]butoxy} benzamide]",< 1.01
17,"NC(=O)c1c(F)ccc(OCCCCOc2cccc(F)c2)c1F [Compound 167, 2,6-difluoro-3-[4-(3-fluorophenoxy)butoxy] benzamide]",1 to 4
18,"NC(=O)c1c(F)ccc(OCCCCOc2ccc(F)cc2)c1F [Compound 168, 2,6-difluoro-3-[4-(4-fluorophenoxy)butoxy] benzamide]",1 to 4
19,"NC(=O)c1c(F)ccc(OCCCCOc2ccc(Cl)c(C(F)(F)F)c2)c1F [Compound 169, 3-{4-[4-chloro-3-(trifluoromethyl)phenoxy]butoxy}-2,6-difluorobenzamide]",< 1.01
20,"NC(=O)c1c(F)ccc(OCCCCOc2ccc(F)c(F)c2)c1F [Compound 170, 3-[4-(3,4-difluorophenoxy)butoxy]-2,6-difluorobenzamide]",1 to 4
